Where only a bound is given, the exact number is not on record here.

Broadly, the IC50 is the concentration needed to halve the response being measured.

The target in one assay is T1, Axl (Homo sapiens, UniProt P30530).
T1 sequence (P30530 26-894): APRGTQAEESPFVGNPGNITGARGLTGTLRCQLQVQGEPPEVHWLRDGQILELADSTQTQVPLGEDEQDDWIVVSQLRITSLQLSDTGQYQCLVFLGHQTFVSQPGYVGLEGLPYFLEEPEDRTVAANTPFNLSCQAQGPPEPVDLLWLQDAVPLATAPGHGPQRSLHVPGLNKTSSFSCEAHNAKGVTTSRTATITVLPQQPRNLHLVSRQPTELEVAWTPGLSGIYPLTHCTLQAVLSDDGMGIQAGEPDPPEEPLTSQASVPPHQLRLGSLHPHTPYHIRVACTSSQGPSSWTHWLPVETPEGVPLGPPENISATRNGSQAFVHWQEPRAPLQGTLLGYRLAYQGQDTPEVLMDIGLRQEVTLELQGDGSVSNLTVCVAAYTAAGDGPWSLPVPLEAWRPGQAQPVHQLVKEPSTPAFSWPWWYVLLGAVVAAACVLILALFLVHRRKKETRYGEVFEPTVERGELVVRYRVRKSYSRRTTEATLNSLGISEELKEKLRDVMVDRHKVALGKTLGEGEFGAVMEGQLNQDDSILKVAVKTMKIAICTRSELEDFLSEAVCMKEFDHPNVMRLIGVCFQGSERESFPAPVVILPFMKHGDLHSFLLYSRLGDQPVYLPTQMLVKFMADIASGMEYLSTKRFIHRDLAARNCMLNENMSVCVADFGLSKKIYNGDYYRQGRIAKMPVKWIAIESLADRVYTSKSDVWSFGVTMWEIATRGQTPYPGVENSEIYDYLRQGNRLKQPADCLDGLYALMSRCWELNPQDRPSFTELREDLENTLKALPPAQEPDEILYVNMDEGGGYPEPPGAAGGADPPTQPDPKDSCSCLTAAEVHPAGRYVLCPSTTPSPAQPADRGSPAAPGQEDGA
In words: Cellular Axl inhibition ELISA (p-Axl, Gas6-induced) using H1299 cells. The class given is cell-based. The arrangement: especially H1299 cell endogenously expresses Axl; endogenous in cells; host or cells: H1299. The note with it: Elisa, comparison of compounds of present invention (**) vs compounds of WO2016/166250 (*), read-out: Cellular activity Axl (H1299) (IC50). As to the method:
Axl is expressed in several of malignant cancer cells; especially H1299 cell endogenously expresses Axl; and an increased phosphorylation of Axl (p-Axl) can be observed, when induced by the Axl ligand, Ga6.
The H1299 cells should be 40-80% confluent in the cell culture flask. Then cells are washed with DPBS and trypsinized. After centrifugation, the cell pellet is re-suspended with pre-warmed culture medium (RPMI1640, 10% FBS) and cells are separated by pipetting 6 times up and down with a 10 ml serological pipette. The cell suspension was diluted to a final concentration of 1.25×10^5 cells/ml. Then 80 μl/well cell suspension is added to the plate. Cell-plates are incubated at 37° C./5% CO2 overnight. Compounds were dissolved by DMSO to 10 mM, and kept in nitrogen cabinet. Prepare the compounds stock plate, the reference compounds concentration starts at 0.50 mM (5 μl+95 μl DMSO), and the tested compounds start at 1.5 mM (6 μl+34 μl DMSO); Then make a 3-fold dilution series (10 doses) compounds. Then dilute compounds by the medium in the mid plate (2 μl compounds+198 μl medium). Transfer 20 μl diluted compounds from mid plate to the cell coated plate. Cell-plates are incubated at 37° C./5% CO2 for 24 h. Add 25 μl of Human Gas6 (1000 ng/ml) to 96-well plate; the final concentration of Human Gas6 is 200 ng/ml. Incubate the plates at 37° C./5% CO2 for 1 h. Remove medium and wash cells once with 300 ul/well ice-cold 1×PBS. Then remove PBS and add 100 μl/well ice-cold 1× Cell Lysis Buffer to 96-well plate. The plate is shaken for 40 min at 4° C. Then plates can be stored at −20° C. After the micro-wells strips have reached room temperature, break off the required number of micro-wells. Place the micro-wells in the strip holder. Unused micro-wells must be resealed and stored at 4° C. immediately. Add 60 μl of cell lysate to the appropriate well. Seal with tape and press firmly onto top of micro-wells. Incubate the plate at 37° C. for 2 h. Gently remove the tape and wash wells 5 times with 1× Wash Buffer, 300 μl each time for each well. Add 100 μl of reconstituted Detection Antibody (green color) to each well. Seal with tape and incubate the plate at 37° C. for 1 h. Repeat wash procedure. Add 100 μl of reconstituted HRP Linked secondary antibody to each well. Seal with tape and incubate the plate at 37° C. for 30 min. Repeat wash procedure. Add 100 μl of TMB Substrate to each well. Seal with tape and incubate the plate at 37° C. for 15 min. Add 100 μl of STOP Solution to each well. Shake gently for a few seconds. Read absorbance at 450 nm within 30 min after adding STOP Solution. Calculations and Formulas: The following calculations and formulas are used for data analysis using XL Fit software: The curve fitting was made using the Sigmoidal Dose-Response Model (Fit model, 205).
Background: In an ELISA, binding on a coated surface is turned into a signal by an enzyme label.
In the case of `CCn1cc(OCC(F)(F)F)c(C(=O)Nc2ccc(Oc3ccnc4cc(OC)c(OC)cc34)cn2)n1` [Compound 4], the IC50 is 3.4 nM.

As to `COCCn1cc(OCC(F)(F)F)c(C(=O)Nc2ccc(Oc3ccnc4cc(OC)c(OC)cc34)cn2)n1` [Compound 10], the IC50 is 5.2 nM. Still for that read-out and setting: as for `COc1cc2nccc(Oc3ccc(NC(=O)c4n[nH]cc4OCC(F)(F)F)nc3)c2cc1OC` [Compound 16], the figure is 44 nM; as for `COc1cc2nccc(Oc3ccc(NC(=O)c4nn(CC5COC5)cc4OCC(F)(F)F)nc3)c2cc1OC` [Compound 92], 3.9 nM.

The same assay, now with this note: read-out: Cellular Axl activity by H1299 Elisa (IC50).
As for `CCn1cc(OCC(F)(F)F)c(C(=O)Nc2ccc(Oc3ccnc4cc(OC)c(OC)cc34)cn2)n1` [Compound 4], the IC50 is < 500 nM. On the same count and under the same terms, as for `CCn1cc(OC(C)C)c(C(=O)Nc2ccc(Oc3ccnc4cc(OC)c(OC)cc34)cn2)n1` [Compound 6], the figure is < 500 nM; as for `CCCn1cc(OCC(F)(F)F)c(C(=O)Nc2ccc(Oc3ccnc4cc(OC)c(OC)cc34)cn2)n1` [Compound 7], < 500 nM. The same measure, in the same setting: as for `CCn1cc(OCC2CCC2)c(C(=O)Nc2ccc(Oc3ccnc4cc(OC)c(OC)cc34)cn2)n1` [Compound 8], the figure is < 500 nM; as for `COc1cc2nccc(Oc3ccc(NC(=O)c4nn(CCN(C)C)cc4OCC(F)(F)F)nc3)c2cc1OC` [Compound 9], < 500 nM. On the same count and under the same terms, next, `COCCn1cc(OCC(F)(F)F)c(C(=O)Nc2ccc(Oc3ccnc4cc(OC)c(OC)cc34)cn2)n1` [Compound 10]: < 500 nM; `CNCCn1cc(OCC(F)(F)F)c(C(=O)Nc2ccc(Oc3ccnc4cc(OC)c(OC)cc34)cn2)n1` [Compound 11]: < 500 nM; `CCCn1cc(OCC(F)F)c(C(=O)Nc2ccc(Oc3ccnc4cc(OC)c(OC)cc34)cn2)n1` [Compound 12]: < 500 nM. `COc1cc2nccc(Oc3ccc(NC(=O)c4n[nH]cc4OCC(F)(F)F)nc3)c2cc1OC` [Compound 16]: the IC50 was < 500 nM. Regarding `COc1cc2nccc(Oc3ccc(NC(=O)c4nn(CC5COC5)cc4OCC(F)(F)F)nc3)c2cc1OC` [Compound 92], the IC50 is < 500 nM. Still for that read-out and setting: as for `COc1cc2nccc(Oc3ccc(NC(=O)c4nn(C5CCN(C)C5)cc4OCC(F)(F)F)cc3F)c2cc1OC` (centres unmarked) [Compound 96], the figure is < 500 nM.

On to `COc1cc2nccc(Oc3ccc(NC(=O)c4nn(CC5COC5)cc4OCC(F)(F)F)cc3F)c2cc1OC` [Compound 97], for which the IC50 was < 500 nM. As to `COc1cc2nccc(Oc3ccc(NC(=O)c4nn(C5CCN(C)C5)cc4OCC(F)(F)F)cc3C)c2cc1OC` (centres unmarked) [Compound 98], the IC50 is ≥ 1000 nM. On the same count and under the same terms, as for `COc1cc2nccc(Oc3ccc(NC(=O)c4nn(CC5COC5)cc4OCC(F)(F)F)cc3C)c2cc1OC` [Compound 99], the figure is < 500 nM; as for `COc1cc2nccc(Oc3ccc(NC(=O)c4nn(C5CCN(C)C5)cc4OCC(F)(F)F)cc3)c2cc1OC` (centres unmarked) [Compound 100], 500 to 1000 nM. Turning to `COc1cc2nccc(Oc3ccc(NC(=O)c4nn(CC5COC5)cc4OCC(F)(F)F)cc3)c2cc1OC` [Compound 101], the IC50 is < 500 nM. Take `COc1cc2nccc(Oc3ccc(NC(=O)c4nn(C)cc4OCC(F)(F)F)nn3)c2cc1OC` [Compound 102]: the IC50 is ≥ 1000 nM. In the case of `COc1cc2nccc(Oc3ccc(NC(=O)c4nn(CC(C)C)cc4OCC(F)(F)F)cn3)c2cc1OC` [Compound 103], the IC50 is < 500 nM. For `COCCn1cc(OCC(F)(F)F)c(C(=O)Nc2ccc(Oc3ccnc4cc(OC)c(OC)cc34)nc2)n1` [Compound 104], the IC50 is 500 to 1000 nM. The same measure, in the same setting: as for `CCCn1cc(OCCOC)c(C(=O)Nc2ccc(Oc3ccnc4cc(OC)c(OC)cc34)cn2)n1` [Compound 105], the figure is < 500 nM. Regarding `CCCn1cc(OCC2COC2)c(C(=O)Nc2ccc(Oc3ccnc4cc(OC)c(OC)cc34)cn2)n1` [Compound 106], the IC50 was < 500 nM. Regarding `COCCOc1cn(C2CC2)nc1C(=O)Nc1ccc(Oc2ccnc3cc(OC)c(OC)cc23)cn1` [Compound 107], the IC50 is < 500 nM. Still for that read-out and setting: as for `COc1cc2nccc(Oc3ccc(NC(=O)c4nn(C5CC5)cc4OC(C)C)nc3)c2cc1OC` [Compound 108], the figure is < 500 nM; as for `COc1cc2nccc(Oc3ccc(NC(=O)c4nn(C5CC5)cc4OCC(F)F)nc3)c2cc1OC` [Compound 109], < 500 nM; as for `COc1cc2nccc(Oc3ccc(NC(=O)c4nn(C5CC5)cc4OCCF)nc3)c2cc1OC` [Compound 110], < 500 nM. Same read-out and setting: next, `COc1cc2nccc(Oc3ccc(NC(=O)c4nn(C5CC5)cc4OCC4CCC4)nc3)c2cc1OC` [Compound 111]: < 500 nM; `COc1cc2nccc(Oc3ccc(NC(=O)c4nn(C5CC5)cc4OCC(F)(F)F)nn3)c2cc1OC` [Compound 112]: < 500 nM; `COc1cc2nccc(Oc3ccc(NC(=O)c4nn(C5CC5)cc4OCCF)nn3)c2cc1OC` [Compound 113]: < 500 nM. The same measure, in the same setting: as for `CCCn1cc(OCC(F)(F)F)c(C(=O)Nc2ccc(Oc3ccnc4cc(OC)c(OC)cc34)c(C(F)(F)F)c2)n1` [Compound 114], the figure is < 500 nM; as for `COc1cc2nccc(Oc3ccc(NC(=O)c4nn(CCOC5CC5)cc4OCC(F)(F)F)c(F)c3)c2cc1OC` [Compound 115], < 500 nM; as for `COc1cc2nccc(Oc3ccc(NC(=O)c4nn(CCOC5CC5)cc4OCC(F)(F)F)cc3F)c2cc1OC` [Compound 116], < 500 nM. As to `COc1cc2nccc(Oc3ccc(NC(=O)c4nn(CCOC5CC5)cc4OCC(F)(F)F)cc3C)c2cc1OC` [Compound 117], the IC50 was 500 to 1000 nM. On the same count and under the same terms, next, `COc1cc2nccc(Oc3ccc(NC(=O)c4nn(CCOC5CC5)cc4OCC(F)(F)F)cc3)c2cc1OC` [Compound 118]: < 500 nM.

In the case of `CNCCn1cc(OCC(F)(F)F)c(C(=O)Nc2ccc(Oc3ccnc4cc(OC)c(OC)cc34)cc2)n1` [Compound 119], the IC50 was ≥ 1000 nM. Regarding `COc1cc2nccc(Oc3ccc(NC(=O)c4nn(CCOC5CC5)cc4OCC(F)(F)F)nn3)c2cc1OC` [Compound 120], the IC50 lay within 500 to 1000 nM. The same measure, in the same setting: as for `COc1cc2nccc(Oc3ccc(NC(=O)c4nn(C5CCCC5)cc4OCC(F)(F)F)nn3)c2cc1OC` [Compound 121], the figure is < 500 nM; as for `COc1cc2nccc(Oc3ccc(NC(=O)c4nn(C5CCNC5)cc4OCC(F)(F)F)nn3)c2cc1OC` (centres unmarked) [Compound 122], ≥ 1000 nM; as for `COc1cc2nccc(Oc3ccc(NC(=O)c4nn(CC5COC5)cc4OCC(F)(F)F)nn3)c2cc1OC` [Compound 123], < 500 nM. For the compound `COc1cc2nccc(Oc3ccc(NC(=O)c4nn(CC(C)C)cc4OCC(F)(F)F)nn3)c2cc1OC` [Compound 124], the concentration for half-maximal inhibition (IC50) was < 500 nM. Still for that read-out and setting: as for `COc1cc2nccc(Oc3ccc(NC(=O)c4nn(CCN)cc4OCC(F)(F)F)nn3)c2cc1OC` [Compound 125], the figure is ≥ 1000 nM; as for `COCCn1cc(OCC(F)(F)F)c(C(=O)Nc2ccc(Oc3ccnc4cc(OC)c(OC)cc34)nn2)n1` [Compound 126], < 500 nM. Still for that read-out and setting: as for `CNCCn1cc(OCC(F)(F)F)c(C(=O)Nc2ccc(Oc3ccnc4cc(OC)c(OC)cc34)nn2)n1` [Compound 127], the figure is ≥ 1000 nM; as for `COc1cc2nccc(Oc3ccc(NC(=O)c4nn(C5CCOC5)cc4OCC(F)(F)F)nn3)c2cc1OC` (centres unmarked) [Compound 128], < 500 nM.

The values are drawn from patent US12162858B2, “Quinoline derivatives as inhibitors of AXL/MER RTK and CSF1R” (QURIENT CO., LTD., priority 2018, dated 2024).
